The values below come from patent publication US20230012368A1 (Hoffmann-La Roche Inc., priority 2018, published 2023).

This assay concerns Acinetobacter baumannii ATCC 17978. The assay is described as follows: Antimicrobial susceptibility testing: 90% growth inhibitory concentration (IC90) determination. Format: cell-based. The conditions noted are these: 90% growth inhibitory concentration, Acinetobacter baumannii ATCC17978, Iso-Sensitest broth, OD 600 nm over 16h, read-out: ATCC17978 IC90. The procedure, abridged: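 Compounds serially twofold diluted (e.g. 50 to 0.097 μM final) in Iso-Sensitest broth, inoculated at ~5×10^(5) CFU/ml, incubated at 35±2° C. OD600 read every 20 minutes over 16h. IC90 taken as concentration inhibiting 90% of growth during logarithmic phase.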

The mark [1] stands for this setting: Acinetobacter baumannii, ATCC17978, 16 h.

Where a name gives a salt, the structure may show the parent alone. Read-outs that look alike come from different tables or passages of the source.

For `Cc1cc(Nc2nccn3c(-c4ccc(OC(F)F)cc4)cnc23)ccc1C(=O)N[C@H](C)CN` [Example 270, N-[(2R)-1-aminopropan-2-yl]-4-[[3-[4-(difluoromethoxy)phenyl]im-idazo[1,2-a]pyrazin-8-yl]amino]-2-methylbenzamide;hydrochlo-ride], the IC90 under setting [1] is 7700 nM.
The same measure, in the same setting: the same measure for `CCc1cc(Nc2nccn3c(-c4ccc(OC(F)F)c(F)c4F)cnc23)ccc1C(=O)NCCCO` [Example 293, 4-[[3-[4-(difluoromethoxy)-2,3-difluorophenyl]imidazo[1,2-a]pyrazin-8-yl]amino]-2-ethyl-N-(3-hydroxypropyl)benzamide]: 120 nM.
On the same count and under the same terms, with `CCc1cc(Nc2nccn3c(-c4ccc(OC)c(F)c4F)cnc23)ccc1C(=O)NCC1CCN(CC(=O)NCC2CCNC2)CC1` (stereo not drawn) [Example 551, 4-((3-(2,3-difluoro-4-methoxyphenyl)imidazo[1,2-a]pyrazin-8-yl)amino)-2-ethyl-N-((1-(2-oxo-2-((pyrrolidin-3-ylmethyl)amino)ethyl)piperi-din-4-yl)methyl)benzamide bis(2,2,2-trifluoroacetate)] the figure was 77 nM; with `CCc1cc(Nc2nccn3c(-c4ccc(OC)c(F)c4F)cnc23)ccc1C(=O)NCCNC(=O)[C@H](N)CCCNC(=N)N` [Example 125, N-[2-[[(2R)-2-amino-5-guanidino-pentanoyl]amino]ethyl]-4-[[3-(2,3-difluoro-4-methoxy-phenyl)imidazo[1,2-a]pyrazin-8-yl]amino]-2-ethyl-benzamide formate], 120 nM; with `CCc1cc(Nc2nccn3c(-c4ccc(Oc5nccc(OC)n5)c(F)c4F)cnc23)ccc1C(=O)NCCN` [Example 466, N-(2-aminoethyl)-4-((3-(2,3-difluoro-4-((4-methoxypyrimidin-2-yl)oxy)phenyl)imidazo[1,2-a]pyrazin-8-yl)amino)-2-ethylbenzamide], 560 nM.
The same measure, in the same setting: with `COc1ccc(-c2cnc3c(Nc4ccc(C(=O)NC(CO)CO)c(C)c4)nccn23)cc1` [Example 154] the figure was 820 nM; with `COc1ccc(-c2cnc3c(Nc4ccc(C(=O)NCCNC(=O)CC[C@H]5C(=O)N5C)c(C)c4)nccn23)c(F)c1F` [Example 338, 4-[[3-(2,3-difluoro-4-methoxyphenyl)imidazo[1,2-a]pyrazin-8-yl]amino]-2-methyl-N-[2-[3-[(2S)-1-methyl-3-oxoaziridin-2-yl]propanoylamino]ethyl]benz-amide], 540 nM; with `COc1ccc(-c2cnc3c(Nc4ccc(C(=O)NCCCCCN)c(C)c4)nccn23)cc1` [Example 184, N-(5-aminopentyl)-4-[[3-(4-methoxyphenyl)imidazo[1,2-a]pyrazin-8-yl]amino]-2-methylbenzamide; hydrochlo-ride], 220 nM.
Take `CCc1cc(Nc2nccn3c(-c4ccc(OC)c(F)c4F)cnc23)ccc1C(=O)NCCNC(=O)[C@@H](N)CCCNC(=N)N` [Example 121, N-[2-[[(2S)-2-amino-5-guanidino-pentanoyl]amino]ethyl]-4-[[3-(2,3-difluoro-4-methoxy-phenyl)imidazo[1,2-a]pyrazin-8-yl]amino]-2-ethyl-benzamide trifluoroacetate]: the IC90 under setting [1] was determined as 280 nM.
Still for that read-out and setting: with `COc1ccc(-c2cnc3c(Nc4ccc(C(=O)N(C)CCn5ccnc5)c(C)c4)nccn23)cc1F` [Example 105, 4-[[3-(3-fluoro-4-methoxy-phenyl)imidazo[1,2-a]pyrazin-8-yl]amino]-N-(2-imidazol-1-ylethyl)-N,2-dimethyl-benzamide] the figure was 820 nM; with `N#CCOc1ccc(-c2cnc3c(Nc4ccc(C(=O)NCC5CCNCC5)c(Cl)c4)nccn23)c(F)c1F` [Example 79, 2-chloro-4-[[3-[4-(cyanomethoxy)-2,3-difluoro-phenyl]imidazo[1,2-a]pyrazin-8-yl]amino]-N-(4-piperidylmethyl) benzamide], 90 nM.
Still for that read-out and setting: with `CCc1cc(Nc2nccn3c(-c4ccc(OC)c(F)c4F)cnc23)ccc1C(=O)NC[C@H](C)NC(=O)[C@@H](N)CCCNC(=N)N` [Example 123, N-[(2S)-2-[[(2S)-2-amino-5-guanidino-pentanoyl]amino]propyl]-4-[[3-(2,3-difluoro-4-methoxy-phenyl)imidazo[1,2-a]pyrazin-8-yl]amino]-2-ethyl-benzamide formate] the figure was 410 nM; with `CCc1cc(Nc2nccn3c(-c4ccc(OC(F)F)c(F)c4F)cnc23)ccc1C(=O)NCC1(CO)COC(=O)N1` (stereo not drawn) [Example 409, 4-((3-(4-(difluoromethoxy)-2,3-difluorophenyl)imidazo[1,2-a]pyrazin-8-yl)amino)-2-ethyl-N-((4-(hydroxymethyl)-2-oxooxazolidin-4-yl)methyl)benzamide], 450 nM.
As to `Cc1cc(Nc2nccn3c(-c4ccc(OC(F)F)cc4)cnc23)ccc1C(=O)N(C)CCN1C[C@@H](C)O[C@@H](C)C1` [Example 256, 4-[[3-[4-(difluoromethoxy)phenyl]im-idazo[1,2-a]pyrazin-8-yl]amino]-N,2-dimethyl-N-[2-[rac-(2R,6S)-2,6-dimethylmorpholin-4-yl]ethyl]benzamide], the IC90 under setting [1] came out at 1900 nM.
Same read-out and setting: the same measure for `COc1ccc(-c2cnc3c(Nc4ccc(C(=O)N(C)CCCC(=O)N5CCNCC5)c(C)c4)nccn23)cc1F` [Example 207, 4-[[3-(3-fluoro-4-methoxyphenyl)imidazo[1,2-a]pyrazin-8-yl]amino]-N,2-dimethyl-N-(4-oxo-4-piperazin-1-ylbutyl)benzamide;hydrochlo-ride]: 560 nM; for `CCc1cc(Nc2nccn3c(-c4ccc(OC)c(F)c4F)cnc23)ccc1C(=O)NCCCNC(=O)CN` [Example 103, N-(3-(2-aminoacetamido)propyl)-4-((3-(2,3-difluoro-4-methoxyphenyl)imidazo [1,2-a]pyrazin-8-yl)amino)-2-ethylbenzamide hydrochloride]: 80 nM.
Same read-out and setting: with `CCc1cc(Nc2nccn3c(-c4ccc(OC)c(F)c4F)cnc23)ccc1C(=O)NCCNC(=O)[C@@H](N)CO` [Example 373, N-[2-[[(2S)-2-amino-3-hydroxypropanoyl]amino]eth-yl]-4-[[3-(2,3-difluoro-4-methoxyphenyl)imidazo[1,2-a]pyrazin-8-yl]amino]-2-ethylbenzamide] the figure was 150 nM.
Take `CCc1cc(Nc2nccn3c(-c4ccc(OC)c(F)c4F)cnc23)ccc1C(=O)NCCCN` [Example 118, N-(3-aminopropyl)-4-((3-(2,3-difluoro-4-methoxyphenyl)imidazo[1,2-a]pyrazin-8-yl)amino)-2-ethylbenzamide dihydrochloride]: the IC90 amounted to 450 nM.
With `Cc1cc(Nc2nccn3c(-c4ccc(OC(F)F)cc4)cnc23)ccc1C(=O)N(CCN1CCNCC1)C1CC1` [Example 284, N-cyclopropyl-4-[[3-[4-(difluoromethoxy)phenyl]im-idazo[1,2-a]pyrazin-8-yl]amino]-2-methyl-N-(2-piperazin-1-ylethyl)benzamide;hydrochlo-ride], under setting [1], the IC90 is 2100 nM.
On the same count and under the same terms, the same measure for `Cc1cc(Nc2nccn3c(-c4ccc(OC(F)F)cc4)cnc23)ccc1C(=O)NCCN` [Example 266, N-(2-aminoethyl)-4-[[3-[4-(difluoromethoxy)phenyl]im-idazo[1,2-a]pyrazin-8-yl]amino]-2-methylbenzamide;hydrochlo-ride]: 5100 nM; for `COc1ccc(-c2cnc3c(Nc4ccc(C(=O)NCCCN5CCNC(C(=O)O)C5)c(C)c4)nccn23)cc1F` (stereo not drawn) [Example 2, 4-(3-(4-((3-(3-fluoro-4-methoxyphenyl)imidazo [1,2-a]pyrazin-8-yl)amino)-2-methylbenzamido)propyl) piperazine-2-carboxylic acid]: 4600 nM; for `Cc1cc(Nc2nccn3c(-c4ccc(OCC#N)c(F)c4F)cnc23)ccc1C(=O)NCCCNC(=O)[C@@H]1C[C@@H](O)CN1` [Example 357, (2S,4R)-N-[3-[[4-[[3-[4-(cyanomethoxy)-2,3-difluorophenyl]imidazo[1,2-a]pyrazin-8-yl]amino]-2-methylbenzoyl]amino]propyl]-4-hydroxypyrrolidine-2-carboxamide]: 50 nM.
Regarding `Cc1cc(Nc2nccn3c(-c4ccc(OC(F)F)cc4)cnc23)ccc1C(=O)NCC1(O)CCNCC1` [Example 261, 4-[[3-[4-(difluoromethoxy)phenyl]im-idazo[1,2-a]pyrazin-8-yl]amino]-N-[(4-hydroxypiperidin-4-yl)methyl]-2-methylbenzamide; hydrochlo-ride], under setting [1], the IC90 was determined as 4900 nM.
On to `COc1ccc(-c2cnc3c(Nc4ccc(C(=O)N(C)CC(=O)N5CCOCC5)c(C)c4)nccn23)cc1F` [Example 8, 4-[[3-(3-fluoro-4-methoxy-phenyl)imidazo[1,2-a]pyrazin-8-yl]amino]-N,2-dimethyl-N-(2-morpholino-2-oxo-ethyl)benzamide], for which the IC90 under setting [1] was determined as 2000 nM.
The same measure, in the same setting: with `COc1ccc(-c2cnc3c(Nc4ccc(C(=O)N[C@H](C)CNC(C)=N)c(C)c4)nccn23)c(F)c1F` [Example 486, 4-[[3-(2,3-difluoro-4-methoxyphenyl)imidazo[1,2-a]pyrazin-8-yl]amino]-#N!- [(2#R!)-1-(ethanimidoylamino)propan-2-yl]-2-methylbenzamide;formic acid] the figure was 68 nM; with `COc1ccc(-c2cnc3c(Nc4ccc(C(=O)NCCN5CCNCC5)c(C)c4)nccn23)cc1F` [Example 199, 4-[[3-(3-fluoro-4-methoxyphenyl)imidazo[1,2-a]pyrazin-8-yl]amino]-2-methyl-N-(2-piperazin-1-ylethyl)benzamide;hydrochlo-ride], 420 nM.
The same measure, in the same setting: with `CCc1cc(Nc2nccn3c(-c4ccc(OC)c(F)c4F)cnc23)ccc1C(=O)NCCCO[C@@H]1O[C@H](CO)[C@H](O)[C@H](O)[C@H]1N` [Example 520, N-[3-[(2R,3R,4R,5R,6R)-3-amino-4,5-dihydroxy-6-(hydroxymethyl)oxan-2-yl]oxypropyl]-4-[[3-(2,3-difluoro-4-methoxyphenyl)imidazo[1,2-a]pyrazin-8-yl]amino]-2-ethylbenzamide;formic acid] the figure was 110 nM.

In general, IC90 refers to the concentration at which the effect reaches the 90% level.
